IC50 and EC50 data for four compounds are collected here from ChEMBL document CHEMBL1201862, “PubChem BioAssay data set” (2004).

The source made the active and inactive calls. Some results are limits rather than exact numbers.

The target in assay [1] is Tyrosine-protein phosphatase non-receptor type 12 (Homo sapiens, UniProt Q05209). As to the kind of experiment: SAR Selectivity Analysis of small molecule inhibitors of PEST using pCAP in a fluorescence assay. [Related pubchem assays (depositor defined):AID1779, AID1784, AID2135]. In kind it is functional.
Sequence of Tyrosine-protein phosphatase non-receptor type 12 (Q05209 whole entry): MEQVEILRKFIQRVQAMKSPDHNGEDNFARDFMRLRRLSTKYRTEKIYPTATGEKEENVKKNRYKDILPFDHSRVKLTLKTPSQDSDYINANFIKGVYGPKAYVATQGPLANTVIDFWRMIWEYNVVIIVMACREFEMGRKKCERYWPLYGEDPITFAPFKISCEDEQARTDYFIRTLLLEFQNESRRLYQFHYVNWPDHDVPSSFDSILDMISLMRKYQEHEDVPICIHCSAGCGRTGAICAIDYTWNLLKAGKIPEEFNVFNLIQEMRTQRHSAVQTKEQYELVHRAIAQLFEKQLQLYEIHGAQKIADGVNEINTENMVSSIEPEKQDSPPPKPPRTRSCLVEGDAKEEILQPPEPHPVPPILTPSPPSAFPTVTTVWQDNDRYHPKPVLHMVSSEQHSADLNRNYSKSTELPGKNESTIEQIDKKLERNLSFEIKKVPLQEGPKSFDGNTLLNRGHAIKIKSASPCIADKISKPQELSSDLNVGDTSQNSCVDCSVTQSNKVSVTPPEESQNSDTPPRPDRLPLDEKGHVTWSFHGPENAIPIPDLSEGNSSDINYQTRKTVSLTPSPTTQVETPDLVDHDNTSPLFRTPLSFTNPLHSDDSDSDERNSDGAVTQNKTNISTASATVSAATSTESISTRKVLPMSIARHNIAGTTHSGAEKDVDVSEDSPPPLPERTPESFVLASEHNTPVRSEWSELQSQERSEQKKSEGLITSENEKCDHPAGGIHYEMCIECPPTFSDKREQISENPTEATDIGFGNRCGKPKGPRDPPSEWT
The target of assay [2] is T1, Dual specificity protein phosphatase 3 (Homo sapiens, UniProt P51452). As to the kind of experiment: SAR VHR1 absorbance Assay for In Vitro dose response studies. [Related pubchem assays (depositor defined):AID1654, AID1661, AID1878, AID1992, AID2004].
T1 sequence (P51452 whole entry): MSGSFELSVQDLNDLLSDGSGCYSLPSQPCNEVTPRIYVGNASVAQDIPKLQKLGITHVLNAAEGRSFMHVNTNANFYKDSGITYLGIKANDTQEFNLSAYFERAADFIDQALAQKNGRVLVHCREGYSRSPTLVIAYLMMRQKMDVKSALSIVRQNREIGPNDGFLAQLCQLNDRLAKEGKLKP
The target in assay [3] is T1, Dual specificity protein phosphatase 3. Nature of the assay: SAR VHR1 Fluorescent Assay for In Vitro dose response studies. [Related pubchem assays (depositor defined):AID1654, AID1661, AID1878, AID1992, AID2004, AID2070, AID2085]. Type of assay: functional.
Assay [4] concerns the target T2, Tyrosine-protein phosphatase non-receptor type 22 (Homo sapiens, UniProt Q9Y2R2).
T2 sequence (Q9Y2R2 whole entry): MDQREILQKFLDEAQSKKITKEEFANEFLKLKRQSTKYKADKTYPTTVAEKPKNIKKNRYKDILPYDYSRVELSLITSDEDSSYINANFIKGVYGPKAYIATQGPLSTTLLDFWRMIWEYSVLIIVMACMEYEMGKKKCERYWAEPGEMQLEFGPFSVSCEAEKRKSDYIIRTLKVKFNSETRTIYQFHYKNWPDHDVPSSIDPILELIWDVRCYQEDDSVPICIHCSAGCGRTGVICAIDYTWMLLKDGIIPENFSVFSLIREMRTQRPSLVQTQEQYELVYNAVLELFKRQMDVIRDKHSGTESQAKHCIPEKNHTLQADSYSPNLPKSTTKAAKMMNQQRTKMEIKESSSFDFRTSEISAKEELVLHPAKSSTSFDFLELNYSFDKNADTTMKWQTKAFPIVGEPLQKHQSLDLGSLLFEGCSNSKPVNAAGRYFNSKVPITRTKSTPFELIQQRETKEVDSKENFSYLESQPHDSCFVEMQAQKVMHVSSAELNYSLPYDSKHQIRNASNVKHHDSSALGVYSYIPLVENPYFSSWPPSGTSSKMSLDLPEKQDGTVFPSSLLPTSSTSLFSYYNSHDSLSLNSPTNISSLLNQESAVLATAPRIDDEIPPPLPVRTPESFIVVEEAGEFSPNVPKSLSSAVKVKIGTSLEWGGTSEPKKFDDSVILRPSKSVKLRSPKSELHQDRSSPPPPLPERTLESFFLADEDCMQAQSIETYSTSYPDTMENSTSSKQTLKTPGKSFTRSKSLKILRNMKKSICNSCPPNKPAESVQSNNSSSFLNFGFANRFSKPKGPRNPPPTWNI
As to the kind of experiment: SAR LYP1 Fluorescent Assay using OMFP substrate for In Vitro dose response studies - Set 3. [Related pubchem assays (depositor defined):AID1779, AID1784, AID2140, AID2686]. Type of assay: functional.

The target of assay [5] is T1, Dual specificity protein phosphatase 3. As to the kind of experiment: MOA VHR1 Fluorescent secondary assay for identification of redox-state modulating compounds. [Related pubchem assays (depositor defined):AID1654, AID1661, AID1878, AID1957].
Assay [6] addresses T3, Tyrosine-protein phosphatase non-receptor type 7 (Homo sapiens, UniProt P35236).
T3 sequence (P35236 whole entry): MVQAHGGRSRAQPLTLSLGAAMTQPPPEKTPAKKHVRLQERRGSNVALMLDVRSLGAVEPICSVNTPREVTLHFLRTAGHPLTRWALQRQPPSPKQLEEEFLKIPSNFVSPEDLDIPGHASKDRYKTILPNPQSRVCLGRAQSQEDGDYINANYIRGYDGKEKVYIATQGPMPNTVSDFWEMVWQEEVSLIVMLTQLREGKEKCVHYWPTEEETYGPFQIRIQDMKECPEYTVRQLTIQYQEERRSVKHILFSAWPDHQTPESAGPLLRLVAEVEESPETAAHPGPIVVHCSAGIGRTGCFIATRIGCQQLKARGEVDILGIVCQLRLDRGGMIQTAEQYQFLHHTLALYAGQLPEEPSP
Nature of the assay: redox-dependent HePTP inhibition, mechanism study, biochemical, fluorescence (AID 2068). Type of assay: functional.

In assay [7] the target is T3, Tyrosine-protein phosphatase non-receptor type 7. Nature of the assay: HePTP (PTPN7) phosphatase inhibitor potency, SAR follow-up, biochemical, set 2 (AID 449736). In kind it is functional.
The target of assay [8] is T2, Tyrosine-protein phosphatase non-receptor type 22. As to the kind of experiment: LYP (PTPN22) phosphatase inhibitor potency, SAR follow-up, biochemical, pCAP fluorogenic substrate, fluorescence, set 3 (AID 449727). Type of assay: functional.
In assay [9] the target is T4, Dual specificity protein phosphatase 6 (Rattus norvegicus, UniProt Q64346).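 Also: confirmatory in vitro dose-response testing of MKP-3 inhibition; recombinant His-tagged MKP-3 made in E. coli BL21 with OMFP substrate.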
T4 sequence (Q64346 whole entry): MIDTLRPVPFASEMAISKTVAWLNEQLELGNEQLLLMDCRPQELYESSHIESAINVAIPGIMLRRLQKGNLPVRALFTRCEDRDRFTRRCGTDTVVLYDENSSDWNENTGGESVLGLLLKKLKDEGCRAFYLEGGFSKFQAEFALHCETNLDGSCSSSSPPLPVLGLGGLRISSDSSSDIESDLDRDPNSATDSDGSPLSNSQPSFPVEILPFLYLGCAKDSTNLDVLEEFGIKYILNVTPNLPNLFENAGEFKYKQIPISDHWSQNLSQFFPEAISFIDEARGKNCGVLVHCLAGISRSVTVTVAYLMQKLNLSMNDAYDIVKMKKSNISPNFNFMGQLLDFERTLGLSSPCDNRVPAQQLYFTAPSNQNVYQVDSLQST
Type of assay: functional.

The target of assay [10] is DNA (cytosine-5)-methyltransferase 1 (Homo sapiens, UniProt P26358). Nature of the assay: DNMT1 methyltransferase inhibitors, confirmation, biochemical, fluorescent molecular beacon (AID 602386). In kind it is functional.
Sequence of DNA (cytosine-5)-methyltransferase 1 (P26358 whole entry): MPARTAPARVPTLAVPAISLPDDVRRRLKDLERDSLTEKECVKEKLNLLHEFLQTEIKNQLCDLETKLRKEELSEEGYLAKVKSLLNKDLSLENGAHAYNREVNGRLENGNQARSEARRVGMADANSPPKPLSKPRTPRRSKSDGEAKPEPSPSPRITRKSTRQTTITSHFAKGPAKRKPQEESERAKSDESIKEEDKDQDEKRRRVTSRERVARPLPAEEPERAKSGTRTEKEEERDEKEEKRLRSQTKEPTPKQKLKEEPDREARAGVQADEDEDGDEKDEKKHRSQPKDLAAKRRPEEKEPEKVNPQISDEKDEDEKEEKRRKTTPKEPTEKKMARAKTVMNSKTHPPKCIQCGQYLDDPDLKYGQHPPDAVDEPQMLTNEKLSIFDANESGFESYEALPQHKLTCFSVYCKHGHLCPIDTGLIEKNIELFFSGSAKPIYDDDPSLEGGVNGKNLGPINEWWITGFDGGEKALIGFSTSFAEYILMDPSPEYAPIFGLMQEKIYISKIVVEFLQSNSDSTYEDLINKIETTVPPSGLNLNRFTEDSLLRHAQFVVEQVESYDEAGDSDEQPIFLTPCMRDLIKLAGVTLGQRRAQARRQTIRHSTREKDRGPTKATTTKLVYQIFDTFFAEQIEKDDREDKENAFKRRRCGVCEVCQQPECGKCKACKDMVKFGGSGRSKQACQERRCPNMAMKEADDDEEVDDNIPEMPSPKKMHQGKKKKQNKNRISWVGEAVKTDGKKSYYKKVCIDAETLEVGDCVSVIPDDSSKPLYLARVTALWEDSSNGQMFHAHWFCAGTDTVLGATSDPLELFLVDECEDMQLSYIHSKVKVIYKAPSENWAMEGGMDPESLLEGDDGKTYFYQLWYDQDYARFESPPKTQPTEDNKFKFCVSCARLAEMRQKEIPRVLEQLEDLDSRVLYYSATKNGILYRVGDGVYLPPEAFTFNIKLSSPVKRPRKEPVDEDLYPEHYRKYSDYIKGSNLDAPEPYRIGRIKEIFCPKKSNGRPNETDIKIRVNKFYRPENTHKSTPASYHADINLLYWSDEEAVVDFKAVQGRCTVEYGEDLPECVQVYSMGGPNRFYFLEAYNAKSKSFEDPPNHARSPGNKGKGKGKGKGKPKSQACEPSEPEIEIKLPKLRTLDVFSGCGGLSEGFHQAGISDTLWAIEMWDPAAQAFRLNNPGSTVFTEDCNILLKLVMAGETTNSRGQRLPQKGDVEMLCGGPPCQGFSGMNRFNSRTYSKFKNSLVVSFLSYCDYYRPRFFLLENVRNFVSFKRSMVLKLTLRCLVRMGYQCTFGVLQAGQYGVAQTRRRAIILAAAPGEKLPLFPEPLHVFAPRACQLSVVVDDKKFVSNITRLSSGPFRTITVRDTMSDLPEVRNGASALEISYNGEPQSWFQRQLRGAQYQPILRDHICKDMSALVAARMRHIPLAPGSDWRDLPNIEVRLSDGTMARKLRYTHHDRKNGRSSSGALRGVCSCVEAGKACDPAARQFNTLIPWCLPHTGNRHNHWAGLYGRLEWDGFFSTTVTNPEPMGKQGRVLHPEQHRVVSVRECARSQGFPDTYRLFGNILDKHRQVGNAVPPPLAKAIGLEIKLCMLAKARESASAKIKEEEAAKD
Assay [11] has as its target T5, Small ubiquitin-related modifier 1 (Homo sapiens, UniProt P63165). As to the kind of experiment: inhibitors of SUMO1 peptide binding, dose response, biochemical, fluorescence polarization, uHTS hits (AID 624382). Type of assay: functional. Conditions: read-out: IC50_Mean. (In general: Fluorescence polarisation rises when a labelled molecule tumbles more slowly, as on binding a larger partner.)

The target of assay [12] is T5, Small ubiquitin-related modifier 1. Nature of the assay: inhibitors of SUMO1 partner interactions, dose response, biochemical, FRET (AID 624383). Type of assay: functional. Particulars: read-out: IC50_Mean.
Assay [13] addresses T6, Low molecular weight phosphotyrosine protein phosphatase (Homo sapiens, UniProt P24666).
T6 sequence (P24666 whole entry): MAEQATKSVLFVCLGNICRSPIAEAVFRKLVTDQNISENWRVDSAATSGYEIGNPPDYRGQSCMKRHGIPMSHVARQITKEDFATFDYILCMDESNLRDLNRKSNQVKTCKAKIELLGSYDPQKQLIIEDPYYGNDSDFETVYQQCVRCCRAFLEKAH
In kind it is functional. Particulars: read-out: IC50_Mean.

The target in assay [14] is T2, Tyrosine-protein phosphatase non-receptor type 22. As to the kind of experiment: LYP phosphatase inhibition for selectivity, dose response, selectivity assay for LMPTP inhibitor project, biochemical, fluorescence, LYP catalytic domain (AID 652006). In kind it is functional. Conditions: read-out: IC50_Mean.
Assay [15] deals with Protein-arginine deiminase type-4 (Homo sapiens, UniProt Q9UM07). As to the kind of experiment: human PAD4 inhibitor potency, dose response, biochemical, fluorescence readout (AID 492970).
Sequence of Protein-arginine deiminase type-4 (Q9UM07 whole entry): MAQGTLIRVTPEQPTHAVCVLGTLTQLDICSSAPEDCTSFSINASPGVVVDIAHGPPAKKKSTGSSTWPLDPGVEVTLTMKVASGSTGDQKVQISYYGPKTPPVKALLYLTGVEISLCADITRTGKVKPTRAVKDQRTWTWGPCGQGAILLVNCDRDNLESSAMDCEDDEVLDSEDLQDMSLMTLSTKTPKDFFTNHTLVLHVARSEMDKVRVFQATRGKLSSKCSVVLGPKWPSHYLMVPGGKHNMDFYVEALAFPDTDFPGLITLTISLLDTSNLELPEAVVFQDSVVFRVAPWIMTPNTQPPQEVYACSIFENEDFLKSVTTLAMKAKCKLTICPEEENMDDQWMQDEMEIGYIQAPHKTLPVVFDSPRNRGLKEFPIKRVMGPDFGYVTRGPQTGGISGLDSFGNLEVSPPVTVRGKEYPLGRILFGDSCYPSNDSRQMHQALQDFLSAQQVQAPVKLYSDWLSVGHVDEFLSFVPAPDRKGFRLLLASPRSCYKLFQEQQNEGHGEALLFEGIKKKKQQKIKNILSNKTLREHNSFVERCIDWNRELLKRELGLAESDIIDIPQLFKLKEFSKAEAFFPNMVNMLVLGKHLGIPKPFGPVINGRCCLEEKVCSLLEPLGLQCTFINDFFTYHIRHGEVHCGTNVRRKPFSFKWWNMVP
In assay [16] the target is T7, NADPH oxidase 1 (Homo sapiens, UniProt Q9Y5S8).
T7 sequence (Q9Y5S8 whole entry): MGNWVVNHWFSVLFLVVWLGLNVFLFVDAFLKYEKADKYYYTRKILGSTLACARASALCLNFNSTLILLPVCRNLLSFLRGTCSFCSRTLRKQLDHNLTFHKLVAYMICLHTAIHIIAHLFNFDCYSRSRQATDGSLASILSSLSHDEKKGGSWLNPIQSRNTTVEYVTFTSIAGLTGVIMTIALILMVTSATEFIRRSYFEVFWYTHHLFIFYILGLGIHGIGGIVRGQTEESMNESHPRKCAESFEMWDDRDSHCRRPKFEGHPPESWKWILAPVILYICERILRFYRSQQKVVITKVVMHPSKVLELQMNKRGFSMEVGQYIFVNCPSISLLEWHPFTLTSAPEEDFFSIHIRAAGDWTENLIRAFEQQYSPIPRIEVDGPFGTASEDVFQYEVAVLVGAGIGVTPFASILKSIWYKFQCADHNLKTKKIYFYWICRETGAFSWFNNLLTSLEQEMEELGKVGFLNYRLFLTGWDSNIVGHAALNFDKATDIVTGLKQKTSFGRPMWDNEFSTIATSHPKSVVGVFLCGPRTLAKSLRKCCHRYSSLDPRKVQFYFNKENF
Nature of the assay: NOX1 inhibitors, concentration-response, dose response, cell-based, luminescence, cherry picks 2 (AID 434997). Type of assay: functional.

For assay [17], the target named is T7, NADPH oxidase 1. As to the kind of experiment: ROS production inhibition in HEK293 cells, late-stage follow-up, counter-screen for NOX1 inhibitor project, cell-based, IC50, set 2 (AID 435002). In kind it is functional. Background: Counterscreens check selectivity or assay interference.
The target of the next assay is NADPH oxidase 4 (Homo sapiens, UniProt Q9NPH5). As to the kind of experiment: PubChem AID 435013.
Sequence of NADPH oxidase 4 (Q9NPH5 whole entry): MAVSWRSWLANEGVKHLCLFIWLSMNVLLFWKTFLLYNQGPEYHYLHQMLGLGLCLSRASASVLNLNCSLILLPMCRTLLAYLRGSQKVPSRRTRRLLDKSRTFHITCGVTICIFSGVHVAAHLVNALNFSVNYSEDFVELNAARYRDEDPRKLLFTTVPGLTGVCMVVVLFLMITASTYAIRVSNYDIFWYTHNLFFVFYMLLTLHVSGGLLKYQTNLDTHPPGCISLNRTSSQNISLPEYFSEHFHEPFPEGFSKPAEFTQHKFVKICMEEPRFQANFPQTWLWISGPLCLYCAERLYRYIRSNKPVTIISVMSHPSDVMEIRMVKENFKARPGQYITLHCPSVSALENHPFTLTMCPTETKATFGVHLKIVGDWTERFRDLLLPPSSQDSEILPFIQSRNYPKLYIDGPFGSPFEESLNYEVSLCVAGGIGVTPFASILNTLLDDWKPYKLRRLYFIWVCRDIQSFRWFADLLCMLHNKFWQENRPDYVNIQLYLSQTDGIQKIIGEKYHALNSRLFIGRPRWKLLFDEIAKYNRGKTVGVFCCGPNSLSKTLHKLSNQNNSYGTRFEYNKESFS
The next assay deals with NADPH oxidase 3 (Homo sapiens, UniProt Q9HBY0). Nature of the assay: PubChem AID 435013.
Sequence of NADPH oxidase 3 (Q9HBY0 whole entry): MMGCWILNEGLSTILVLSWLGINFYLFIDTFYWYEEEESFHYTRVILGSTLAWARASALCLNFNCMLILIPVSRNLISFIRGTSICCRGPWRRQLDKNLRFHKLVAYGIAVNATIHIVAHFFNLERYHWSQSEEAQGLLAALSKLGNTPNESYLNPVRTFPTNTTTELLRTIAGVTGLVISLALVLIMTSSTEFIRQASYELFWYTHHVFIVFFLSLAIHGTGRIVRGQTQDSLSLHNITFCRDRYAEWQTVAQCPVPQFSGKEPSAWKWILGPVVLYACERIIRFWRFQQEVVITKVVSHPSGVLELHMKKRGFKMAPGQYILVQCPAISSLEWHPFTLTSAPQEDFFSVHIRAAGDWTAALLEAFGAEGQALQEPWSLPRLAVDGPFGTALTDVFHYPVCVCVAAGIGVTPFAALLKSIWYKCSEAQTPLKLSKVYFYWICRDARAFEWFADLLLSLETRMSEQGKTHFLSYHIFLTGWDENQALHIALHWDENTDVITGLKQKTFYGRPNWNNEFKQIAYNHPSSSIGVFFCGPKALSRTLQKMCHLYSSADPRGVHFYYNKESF
Another assay deals with NADPH oxidase 2 (Homo sapiens, UniProt P04839). As to the kind of experiment: PubChem AID 435013.
The nature of assay [18]: A cytotoxicity screen of small molecule inhibitors of the PhoP region in Salmonella typhi identified in the primary screen. [Related pubchem assays: 1850, 1864, 1985 ]. Type of assay: functional.
The next assay addresses T8, Hexokinase HKDC1 (Homo sapiens, UniProt Q2TB90).
T8 sequence (Q2TB90 whole entry): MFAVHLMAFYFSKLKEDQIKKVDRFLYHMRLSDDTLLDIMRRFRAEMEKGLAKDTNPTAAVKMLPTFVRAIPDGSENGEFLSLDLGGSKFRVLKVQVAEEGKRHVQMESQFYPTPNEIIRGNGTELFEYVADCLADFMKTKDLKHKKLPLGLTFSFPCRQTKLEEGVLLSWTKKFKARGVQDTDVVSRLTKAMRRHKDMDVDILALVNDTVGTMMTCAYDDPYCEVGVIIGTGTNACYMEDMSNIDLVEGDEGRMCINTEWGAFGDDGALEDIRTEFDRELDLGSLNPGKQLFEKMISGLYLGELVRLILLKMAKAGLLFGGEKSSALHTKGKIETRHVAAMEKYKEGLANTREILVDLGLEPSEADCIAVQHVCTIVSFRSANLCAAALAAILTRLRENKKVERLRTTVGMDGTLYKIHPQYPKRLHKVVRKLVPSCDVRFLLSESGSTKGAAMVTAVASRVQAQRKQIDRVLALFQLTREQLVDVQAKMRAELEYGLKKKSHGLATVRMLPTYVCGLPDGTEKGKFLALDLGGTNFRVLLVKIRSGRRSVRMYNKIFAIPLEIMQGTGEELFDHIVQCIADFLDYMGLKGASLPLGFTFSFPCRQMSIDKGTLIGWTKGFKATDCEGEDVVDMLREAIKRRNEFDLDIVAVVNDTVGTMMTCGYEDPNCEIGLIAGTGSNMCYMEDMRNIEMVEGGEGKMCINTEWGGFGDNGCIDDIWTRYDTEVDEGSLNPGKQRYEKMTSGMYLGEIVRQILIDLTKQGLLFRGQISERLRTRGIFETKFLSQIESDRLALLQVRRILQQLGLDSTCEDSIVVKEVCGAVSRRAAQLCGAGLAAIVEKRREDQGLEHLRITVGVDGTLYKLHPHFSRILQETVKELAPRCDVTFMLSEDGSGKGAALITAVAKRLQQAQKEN
Nature of the assay: HKDC1 hexokinase activators, dose response, biochemical, W721R variant (AID 504730). Type of assay: functional.

The target in another assay is Hexokinase-1 (Homo sapiens, UniProt P19367). Nature of the assay: hexokinase 1 activators, dose response, selectivity assay for HKDC1 activator project, biochemical (AID 504762). In kind it is functional.

T5 sequence (P63165 whole entry): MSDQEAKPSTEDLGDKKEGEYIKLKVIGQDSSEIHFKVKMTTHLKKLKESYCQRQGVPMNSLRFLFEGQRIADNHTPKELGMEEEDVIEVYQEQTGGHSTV

`CCOC(=O)C1=C(C)N=c2sc(=Cc3ccc(OCC(=O)O)cc3)c(=O)n2C1c1ccc(Cl)cc1` (stereo not drawn): the IC50 in [1] was 2.41 µM (active); in assay [2] it was 4.23 µM (active); in [3], 3.2 µM (active); in assay [4], 3.82 µM (active); in assay [5], 2.08 µM (active); in assay [6], 0.52 µM (active). The IC50 is 0.419 µM (active) in assay [7]; 2.74 µM (active) in assay [8]; 41.4 µM (active) in [9]; 8.42 µM (active) in [10]; > 66.6 µM (inactive) in [11]; 8.82 µM (active) in assay [12]. Also, the figures for the IC50 in assay [13] and in [14] were 12.5 µM (active) and 12 µM (active), respectively.

For `CC(=O)c1cc([N+](=O)[O-])c(Sc2ccc(Cl)cc2)s1`, the IC50 in assay [15] is 92 µM (inactive).

`CN(C)c1ccc(/C=N/Nc2c(Cl)cncc2Cl)cc1`: the IC50 on NADPH oxidase 1 [16] was 0.44 µM (active); at NADPH oxidase 1 [17], 4 µM (active); at NADPH oxidase 4, 9 µM (active); at NADPH oxidase 3 it was 20 µM (inactive); on NADPH oxidase 2, > 10 µM (inactive).

Take `Nc1nc(N2CCN(c3ccccn3)CC2)nc2ccccc12`: the EC50 is > 50 µM (active) in [18], 25.4 µM (inactive) at Hexokinase HKDC1 and 32.2 µM (inactive) at Hexokinase-1.

For orientation: EC50 means the concentration giving half of the maximal effect.
